Experiments:
Format in all cases: functional
[1] = Growth inhibitory concentration against NCI panel of 60 human cancer cell lines
[2] = Total growth inhibition of NCI panel of 60 human cancer cell lines
[3] = Mean cytotoxicity towards NCI panel of 60 human cancer cell lines; settings: read-out: LC50 (the source's name)

Work on COc1cc(C(=O)O[C@H](C(=O)NCCN(C)CCNC(=O)[C@@H](OC(=O)c2cc(OC)cc3c(C)cccc23)[C@]2(C)CO2)[C@]2(C)CO2)c2cccc(C)c2c1 yielded a GI50 [1] of 28 nM, a TGI [2] of 350 nM and a CC50 [3] of 14.4 µM.
In the case of COc1cc(C(=O)O[C@H](C(=O)NCCNC(=O)[C@@H](OC(=O)c2cc(OC)cc3c(C)cccc23)[C@]2(C)CO2)[C@]2(C)CO2)c2cccc(C)c2c1, the GI50 [1] is reported as 72 nM, the TGI [2] is reported as 2400 nM and the CC50 [3] is reported as 62 µM.
Work on COc1cc(C(=O)O[C@H](C(=O)NCCCNC(=O)[C@@H](OC(=O)c2cc(OC)cc3c(C)cccc23)[C@]2(C)CO2)[C@]2(C)CO2)c2cccc(C)c2c1 yielded a GI50 [1] of 31 nM, a TGI [2] of 210 nM and a CC50 [3] of 3.2 µM.
Work on COc1cc(C(=O)O[C@H](C(=O)NCCCCNC(=O)[C@@H](OC(=O)c2cc(OC)cc3c(C)cccc23)[C@]2(C)CO2)[C@]2(C)CO2)c2cccc(C)c2c1 yielded a GI50 [1] of 53 nM, a TGI [2] of 550 nM and a CC50 [3] of 14.8 µM.
COc1cc(C(=O)O[C@H](C(=O)NCCCCCNC(=O)[C@@H](OC(=O)c2cc(OC)cc3c(C)cccc23)[C@]2(C)CO2)[C@]2(C)CO2)c2cccc(C)c2c1 gave a GI50 [1] of 178 nM, a TGI [2] of 3400 nM and a CC50 [3] of 50 µM.
Compound COc1cc(C(=O)O[C@H](C(N)=O)[C@]2(C)CO2)c2cccc(C)c2c1 has a GI50 [1] of 214 nM, a TGI [2] of 2000 nM and a CC50 [3] of 33 µM.

— ChEMBL document CHEMBL1139594, “Azinomycin inspired bisepoxides: influence of linker structure on in vitro cytotoxicity and DNA interstrand cross-linking” (2005)
